# Laboratory results as given in ChEMBL document CHEMBL3877279, “Design, synthesis, in-silico and biological evaluation of novel donepezil derivatives as multi-target-directed ligands for the treatment of Alzheimer's disease” (Eur J Med Chem, 2017).
# Calls of active or inactive are those of the source. The rule behind the calls is not given here.
# Assays:
# [1] = target: Acetylcholinesterase (Electrophorus electricus, UniProt O42275); experiment: Inhibition of Electric eel AChE using acetylthiocholine iodide as substrate preincubated for 5 mins followed by substrate addition measured after 2 mins by Ellman's method
# [2] = target: T1, Amyloid-beta precursor protein (Homo sapiens, UniProt P05067); experiment: Inhibition of HFIP-pretreated amyloid beta (1 to 42) (unknown origin) self-induced aggregation at 25 uM after 48 hrs by thioflavin-T fluorescence assay relative to control
# [3] = target: Cholinesterase (Equus caballus, UniProt P81908); experiment: Inhibition of equine serum BuChE using butyrylthiocholine iodide as substrate preincubated for 5 mins followed by substrate addition measured after 2 mins by Ellman's method; format: ADME
# [4] = Antioxidant activity assessed as trolox equivalent of AAPH radical scavenging activity at 1 to 25 uM preincubated for 15 mins followed by AAPH addition measured every min for 80 mins by ORAC-FL assay; format: functional
# [5] = Selectivity index, ratio of IC50 for equine serum BuChE to IC50 for Electric eel AChE
# [6] = Cytotoxicity against human SH-SY5Y cells assessed as cell viability at 50 uM after 48 hrs by MTT assay relative to control; format: toxicity, cell-based; details: read-out: Activity
# [7] = Cytotoxicity against human SH-SY5Y cells assessed as cell viability at 5 uM after 48 hrs by MTT assay relative to control; format: toxicity, cell-based; details: read-out: Activity
# [8] = tested on: SH-SY5Y; experiment: Neuroprotective activity against amyloid beta (1 to 42)-induced morphological changes in human SH-SY5Y cells assessed as decrease in fading synapses at 20 uM after 48 hrs by phase contrast microscopic method; format: functional, cell-based
# [9] = Cytotoxicity against human SH-SY5Y cells assessed as cell viability at 75 uM after 48 hrs by MTT assay relative to control; format: toxicity, cell-based; details: read-out: Activity
# [10] = tested on: SH-SY5Y; experiment: Neuroprotective activity against amyloid beta (1 to 42)-induced morphological changes in human SH-SY5Y cells assessed as decrease in fragmented or rounded floating cells at 20 uM after 48 hrs by phase contrast microscopic method; format: functional, cell-based
# [11] = tested on: SH-SY5Y; experiment: Neuroprotective activity against amyloid beta (1 to 42)-induced morphological changes in human SH-SY5Y cells assessed as decrease in loss of adherence at 20 uM after 48 hrs by phase contrast microscopic method; format: functional, cell-based
# [12] = tested on: SH-SY5Y; experiment: Neuroprotective activity against H2O2-induced oxidative stress in human SH-SY5Y cells assessed as inhibition of ROS accumulation after 24 hrs by DCFH-DA probe based fluorescence assay; format: functional, cell-based
# [13] = Effect on basal ROS level in human SH-SY5Y cells at 5 to 20 uM after 24 hrs by DCFH-DA probe based fluorescence assay; format: ADME, cell-based
# [14] = Cytotoxicity against human SH-SY5Y cells assessed as cell viability at 100 uM after 48 hrs by MTT assay relative to control; format: toxicity, cell-based; details: read-out: Activity
# [15] = tested on: SH-SY5Y; experiment: Neuroprotective activity against H2O2-induced oxidative stress in human SH-SY5Y cells assessed as increase in cell viability at 10 uM after 24 hrs by MTT assay; format: functional, cell-based
# [16] = Cytotoxicity against human SH-SY5Y cells assessed as cell viability at 1 uM after 48 hrs by MTT assay relative to control; format: toxicity, cell-based; details: read-out: Activity
# [17] = tested on: SH-SY5Y; experiment: Neuroprotective activity against amyloid beta (1 to 42)-induced neurodegeneration in human SH-SY5Y cells assessed as increase in cell viability at 20 uM after 48 hrs by MTT assay; format: functional, cell-based
# [18] = tested on: SH-SY5Y; experiment: Neuroprotective activity against H2O2-induced morphological changes in human SH-SY5Y cells assessed as decrease in cell rounding at 20 uM after 24 hrs by phase contrast microscopic method; format: functional, cell-based
# [19] = tested on: SH-SY5Y; experiment: Neuroprotective activity against H2O2-induced morphological changes in human SH-SY5Y cells assessed as decrease in cell vacuolation at 20 uM after 24 hrs by phase contrast microscopic method; format: functional, cell-based
# [20] = Cytotoxicity against human SH-SY5Y cells assessed as reduction in cell viability after 48 hrs by MTT assay; format: toxicity, cell-based
# [21] = Cytotoxicity against human SH-SY5Y cells assessed as cell viability at 10 uM after 48 hrs by MTT assay relative to control; format: toxicity, cell-based; details: read-out: Activity
# [22] = tested on: SH-SY5Y; experiment: Neuroprotective activity against amyloid beta (1 to 42)-induced morphological changes in human SH-SY5Y cells assessed as decrease in shrinked cell body at 20 uM after 48 hrs by phase contrast microscopic method; format: functional, cell-based
# [23] = tested on: SH-SY5Y; experiment: Neuroprotective activity against H2O2-induced morphological changes in human SH-SY5Y cells assessed as decrease in floated appearance at 20 uM after 24 hrs by phase contrast microscopic method; format: functional, cell-based
# [24] = Cytotoxicity against human SH-SY5Y cells assessed as cell viability at 25 uM after 48 hrs by MTT assay relative to control; format: toxicity, cell-based; details: read-out: Activity
# [25] = target: T1, Amyloid-beta precursor protein; experiment: Inhibition of HFIP-pretreated amyloid beta (1 to 42) (unknown origin) self-induced aggregation after 48 hrs by thioflavin-T fluorescence assay
# [26] = target: T1, Amyloid-beta precursor protein; experiment: Potency index, ratio of compound effect to curcumin effect for inhibition of HFIP-pretreated amyloid beta (1 to 42) (unknown origin) self-induced aggregation at 25 uM
# [27] = target: T1, Amyloid-beta precursor protein; experiment: Inhibition of amyloid beta (1 to 42) (unknown origin) fibril formation at 25 uM after 48 hrs by uranyl acetate staining based transmission electron microscopic method
# [28] = tested on: SH-SY5Y; experiment: Neuroprotective activity against H2O2-induced oxidative stress in human SH-SY5Y cells assessed as inhibition of ROS accumulation at 10 to 20 uM after 24 hrs by DCFH-DA probe based fluorescence assay; format: functional, cell-based
# [29] = tested on: SH-SY5Y; experiment: Neuroprotective activity against amyloid beta (1 to 42)-induced neurodegeneration in human SH-SY5Y cells assessed as increase in cell viability at 10 uM after 48 hrs by MTT assay; format: functional, cell-based
# [30] = target: Acetylcholinesterase (Electrophorus electricus) (UniProt O42275); experiment: Mixed-type inhibition of Electric eel AChE at 10 to 40 nM using varying levels of acetylthiocholine iodide as substrate preincubated for 15 mins followed by substrate addition by Lineweaver-Burk plot analysis
# [31] = tested on: SH-SY5Y; experiment: Neuroprotective activity against H2O2-induced oxidative stress in human SH-SY5Y cells assessed as increase in cell viability at 20 uM after 24 hrs by MTT assay; format: functional, cell-based
# [32] = target: T1, Amyloid-beta precursor protein; experiment: Potency index, ratio of curcumin IC50 to compound IC50 for HFIP-pretreated amyloid beta (1 to 42) (unknown origin) self-induced aggregation
# [33] = tested on: SH-SY5Y; experiment: Neuroprotective activity against H2O2-induced oxidative stress in human SH-SY5Y cells assessed as increase in cell viability at 5 to 20 uM after 24 hrs by MTT assay; format: functional, cell-based
# Chain of Cholinesterase (P81908 whole entry): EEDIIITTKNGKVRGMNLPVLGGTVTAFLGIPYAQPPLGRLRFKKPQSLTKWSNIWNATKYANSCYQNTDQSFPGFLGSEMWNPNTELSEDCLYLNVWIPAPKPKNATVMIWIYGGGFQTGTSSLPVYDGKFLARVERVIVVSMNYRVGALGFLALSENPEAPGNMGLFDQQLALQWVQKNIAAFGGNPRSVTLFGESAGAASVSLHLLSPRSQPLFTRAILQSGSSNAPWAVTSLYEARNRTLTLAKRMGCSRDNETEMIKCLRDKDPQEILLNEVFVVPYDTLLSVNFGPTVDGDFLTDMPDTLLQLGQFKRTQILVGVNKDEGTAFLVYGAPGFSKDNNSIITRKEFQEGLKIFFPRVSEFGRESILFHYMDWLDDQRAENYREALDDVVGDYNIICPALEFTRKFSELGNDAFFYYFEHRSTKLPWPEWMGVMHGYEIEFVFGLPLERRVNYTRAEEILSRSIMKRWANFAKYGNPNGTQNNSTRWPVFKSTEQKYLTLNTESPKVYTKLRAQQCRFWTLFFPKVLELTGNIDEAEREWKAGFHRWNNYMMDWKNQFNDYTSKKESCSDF
# Chain of Acetylcholinesterase (O42275 whole entry): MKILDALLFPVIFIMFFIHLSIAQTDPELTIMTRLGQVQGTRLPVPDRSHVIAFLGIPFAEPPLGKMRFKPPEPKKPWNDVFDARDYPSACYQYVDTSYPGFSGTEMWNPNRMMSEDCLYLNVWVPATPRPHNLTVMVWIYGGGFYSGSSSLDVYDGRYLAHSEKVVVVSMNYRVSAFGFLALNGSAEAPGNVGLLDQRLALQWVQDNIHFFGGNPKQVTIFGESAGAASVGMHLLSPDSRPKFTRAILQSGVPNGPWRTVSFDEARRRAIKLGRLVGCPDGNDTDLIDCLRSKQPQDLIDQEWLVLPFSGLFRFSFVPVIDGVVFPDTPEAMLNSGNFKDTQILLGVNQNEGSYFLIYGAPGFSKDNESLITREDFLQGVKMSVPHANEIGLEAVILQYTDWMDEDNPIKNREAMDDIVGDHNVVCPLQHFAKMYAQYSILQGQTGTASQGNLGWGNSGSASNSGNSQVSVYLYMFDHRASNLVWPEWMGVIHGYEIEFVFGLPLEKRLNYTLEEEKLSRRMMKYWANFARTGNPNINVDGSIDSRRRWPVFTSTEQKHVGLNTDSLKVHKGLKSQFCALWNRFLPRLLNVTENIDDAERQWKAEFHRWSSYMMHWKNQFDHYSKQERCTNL
# T1 sequence (P05067 whole entry): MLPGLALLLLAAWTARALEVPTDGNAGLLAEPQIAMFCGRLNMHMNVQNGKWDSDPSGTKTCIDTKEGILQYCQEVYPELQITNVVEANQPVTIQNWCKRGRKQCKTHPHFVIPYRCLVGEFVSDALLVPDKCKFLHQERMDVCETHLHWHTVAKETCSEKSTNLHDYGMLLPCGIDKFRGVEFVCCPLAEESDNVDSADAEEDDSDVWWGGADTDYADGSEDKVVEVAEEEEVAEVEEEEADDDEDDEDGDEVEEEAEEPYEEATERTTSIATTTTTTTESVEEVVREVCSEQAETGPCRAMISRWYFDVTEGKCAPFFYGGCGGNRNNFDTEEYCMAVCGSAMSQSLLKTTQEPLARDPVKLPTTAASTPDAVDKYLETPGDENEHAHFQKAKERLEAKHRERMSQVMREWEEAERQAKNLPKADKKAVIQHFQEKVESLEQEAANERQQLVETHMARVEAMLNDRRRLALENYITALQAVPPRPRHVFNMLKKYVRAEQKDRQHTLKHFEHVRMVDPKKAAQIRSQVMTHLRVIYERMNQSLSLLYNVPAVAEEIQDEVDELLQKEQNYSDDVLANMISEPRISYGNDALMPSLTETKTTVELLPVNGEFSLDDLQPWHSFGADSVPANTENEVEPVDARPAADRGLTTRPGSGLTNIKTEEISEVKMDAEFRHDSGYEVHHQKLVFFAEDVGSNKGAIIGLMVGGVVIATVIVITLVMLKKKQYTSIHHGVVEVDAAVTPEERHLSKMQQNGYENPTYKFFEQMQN
# Chain of Acetylcholinesterase (Electrophorus electricus) (O42275 24-633 limits assumed): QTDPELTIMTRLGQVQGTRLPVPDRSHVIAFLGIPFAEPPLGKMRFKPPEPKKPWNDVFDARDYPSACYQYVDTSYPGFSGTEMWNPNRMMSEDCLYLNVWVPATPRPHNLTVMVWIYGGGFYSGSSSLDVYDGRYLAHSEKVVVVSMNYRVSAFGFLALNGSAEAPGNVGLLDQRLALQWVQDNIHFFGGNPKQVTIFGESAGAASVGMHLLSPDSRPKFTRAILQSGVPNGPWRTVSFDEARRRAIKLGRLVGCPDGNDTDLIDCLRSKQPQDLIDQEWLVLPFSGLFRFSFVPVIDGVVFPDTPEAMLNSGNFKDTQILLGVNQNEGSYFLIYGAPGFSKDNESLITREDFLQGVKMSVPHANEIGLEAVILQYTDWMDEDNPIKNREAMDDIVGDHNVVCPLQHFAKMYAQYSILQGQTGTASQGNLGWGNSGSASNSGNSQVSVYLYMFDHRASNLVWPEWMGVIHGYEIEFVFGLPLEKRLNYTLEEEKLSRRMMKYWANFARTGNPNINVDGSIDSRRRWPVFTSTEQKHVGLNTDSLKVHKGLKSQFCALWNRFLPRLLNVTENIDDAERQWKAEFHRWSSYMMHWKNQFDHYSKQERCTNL
smiles,measurement,setting,value
COc1cc2c(cc1OC)C(=O)/C(=C/c1ccc(N3CCN(c4ccccn4)CC3)cc1)C2,IC50,[1],0.105 µM
same,inhibition,[2],73.3%
same,IC50,[3],1.74 µM
same,Activity (umolequiv/umol),[4],2.08
same,Ratio IC50,[5],16.5
COc1cc2c(cc1OC)C(=O)/C(=C/c1ccc(N3CCN(C(=O)c4ccccc4)CC3)cc1)C2,IC50,[1],1.7 µM
same,inhibition,[2],61.4%
same,IC50,[3],0.365 µM
same,Activity (umolequiv/umol),[4],2.31
same,Ratio IC50,[5],0.2
COc1cc2c(cc1OC)C(=O)/C(=C/c1ccc(N3CCN(C(=O)c4ccoc4)CC3)cc1)C2,"viability at 48 h, 50 µM",[6],86.9%
same,"viability at 48 h, 5 µM",[7],94.4%
same,Activity,[8],Active
same,IC50,[1],0.034 µM
same,inhibition,[2],80.4%
same,"viability at 48 h, 75 µM",[9],83.7%
same,Activity,[10],Active
same,IC50,[3],1.97 µM
same,Activity,[11],Active
same,inhibition,[12],Dose-dependent effect
same,Activity,[13],Non-Toxic
same,"viability at 48 h, 100 µM",[14],81.1%
same,Activity (umolequiv/umol),[4],3.89
same,Activity,[15],Active
same,"viability at 48 h, 1 µM",[16],96%
same,Activity,[17],Active
same,Activity,[18],Active
same,Activity,[19],Active
same,Activity,[20],Dose-dependent effect
same,"viability at 48 h, 10 µM",[21],92.3%
same,Activity,[22],Active
same,Activity,[23],Active
same,"viability at 48 h, 25 µM",[24],90.1%
same,IC50,[25],10.9 µM
COc1cc2c(cc1OC)C(=O)/C(=C/c1ccc(N3CCN(c4ccc(Cl)cc4)CC3)cc1)C2,IC50,[1],0.291 µM
same,inhibition,[2],59.5%
same,IC50,[3],2.22 µM
same,Activity (umolequiv/umol),[4],1.87
same,Ratio IC50,[5],7.6
COc1cc2c(cc1OC)C(=O)/C(=C/c1ccc(N3CCN(C(c4ccccc4)c4ccccc4)CC3)cc1)C2,IC50,[1],0.082 µM
same,inhibition,[2],78.2%
same,IC50,[3],4.89 µM
same,Activity (umolequiv/umol),[4],1.41
same,Ratio IC50,[5],59.6
same,IC50,[25],12.2 µM
COc1ccc(N2CCN(c3ccc(/C=C4\Cc5cc(OC)c(OC)cc5C4=O)cc3)CC2)cc1,IC50,[1],0.119 µM
same,inhibition,[2],70.5%
same,IC50,[3],0.603 µM
same,Ratio,[26],1.26
same,Activity (umolequiv/umol),[4],3.39
same,Ratio IC50,[5],5.06
COc1cc2c(cc1OC)C(=O)/C(=C/c1ccc(N3CCN(Cc4ccccc4)CC3)cc1)C2,IC50,[1],2.62 µM
same,inhibition,[2],48.5%
same,IC50,[3],0.088 µM
same,Activity (umolequiv/umol),[4],1.69
same,Ratio IC50,[5],0.03
COc1cc2c(cc1OC)C(=O)/C(=C/c1ccc(N3CCN(c4ccc(C)cc4C)CC3)cc1)C2,IC50,[1],0.112 µM
same,inhibition,[2],65.7%
same,IC50,[3],5.13 µM
same,Activity (umolequiv/umol),[4],1.35
same,Ratio IC50,[5],45.8
COc1cc2c(cc1OC)C(=O)/C(=C/c1ccc(N3CCN(c4ccc(C)cc4)CC3)cc1)C2,IC50,[1],0.194 µM
same,inhibition,[2],63.5%
same,IC50,[3],1.85 µM
same,Activity (umolequiv/umol),[4],1.3
same,Ratio IC50,[5],9.5
COc1cc2c(cc1OC)C(=O)/C(=C/c1ccc(N3CCN(c4ccc(C(F)(F)F)cc4)CC3)cc1)C2,IC50,[1],0.153 µM
same,inhibition,[2],64.2%
same,IC50,[3],0.214 µM
same,Activity (umolequiv/umol),[4],1.72
same,Ratio IC50,[5],1.4
COc1cc2c(cc1OC)C(=O)/C(=C/c1ccc(N3CCN(c4ncccn4)CC3)cc1)C2,inhibition,[27],Active
same,"viability at 48 h, 50 µM",[6],89.3%
same,"viability at 48 h, 5 µM",[7],96.1%
same,Activity,[8],Active
same,IC50,[1],0.025 µM
same,inhibition,[28],Active
same,inhibition,[2],81.6%
same,"viability at 48 h, 75 µM",[9],85.7%
same,Activity,[10],Active
same,IC50,[3],2.43 µM
same,Activity,[11],Active
same,Activity,[29],Active
same,"viability at 48 h, 100 µM",[14],82.4%
same,Activity (umolequiv/umol),[4],2.34
same,"viability at 48 h, 1 µM",[16],98.5%
same,Ratio IC50,[5],97.3
same,Activity,[18],Active
same,Activity,[19],Active
same,Activity,[20],Dose-dependent effect
same,"viability at 48 h, 10 µM",[21],94.7%
same,inhibition,[30],Active
same,Activity,[31],Active
same,Activity,[22],Active
same,Activity,[23],Active
same,"viability at 48 h, 25 µM",[24],92.8%
same,IC50,[25],9.9 µM
COc1cc2c(cc1OC)C(=O)/C(=C/c1ccc(N3CCN(Cc4ccc5c(c4)OCO5)CC3)cc1)C2,IC50,[1],1.86 µM
same,inhibition,[2],64.5%
same,IC50,[3],12.2 µM
same,Activity (umolequiv/umol),[4],3.35
same,Ratio IC50,[5],6.5
COc1cc2c(cc1OC)C(=O)/C(=C/c1ccc(N3CCN(c4ccc(F)cc4)CC3)cc1)C2,IC50,[1],0.528 µM
same,inhibition,[2],66.8%
same,IC50,[3],3.24 µM
same,Activity (umolequiv/umol),[4],1.93
same,Ratio IC50,[5],6.1
COc1cc(/C=C/C(=O)CC(=O)/C=C/c2ccc(O)c(OC)c2)ccc1O,inhibition,[27],Active
COc1cc2c(cc1OC)C(=O)/C(=C/c1ccc(N3CCN(c4ccccc4)CC3)cc1)C2,IC50,[1],1.31 µM
same,inhibition,[2],51.1%
same,IC50,[3],5.98 µM
same,Activity (umolequiv/umol),[4],0.64
same,Ratio IC50,[5],4.5
COc1cc2c(cc1OC)C(=O)/C(=C/c1ccc(N3CCN(C(c4ccc(F)cc4)c4ccc(F)cc4)CC3)cc1)C2,inhibition,[27],Active
same,"viability at 48 h, 50 µM",[6],88.6%
same,"viability at 48 h, 5 µM",[7],95.4%
same,Activity,[8],Active
same,IC50,[1],0.045 µM
same,inhibition,[28],Active
same,inhibition,[2],83.7%
same,"viability at 48 h, 75 µM",[9],84.3%
same,Activity,[10],Active
same,IC50,[3],3.01 µM
same,Activity,[11],Active
same,"viability at 48 h, 100 µM",[14],80.3%
same,Activity (umolequiv/umol),[4],2.98
same,"viability at 48 h, 1 µM",[16],97.1%
same,Ratio IC50,[5],67
same,Activity,[17],Active
same,Activity,[18],Active
same,Activity,[19],Active
same,Activity,[20],Dose-dependent effect
same,"viability at 48 h, 10 µM",[21],95.7%
same,Ratio IC50,[32],2.96
same,Activity,[33],Active
same,Activity,[22],Active
same,Activity,[23],Active
same,"viability at 48 h, 25 µM",[24],92.8%
same,IC50,[25],7.4 µM
